Entries after “also recorded” stand apart in the source; their conditions may differ. Ends that are not written are not given here.

For test [1], the system named is Thy-1+ T cell differentiation from prothymocytes (spleen cell populations from nu/nu mice). In words: induction in vitro of Thy-1+ T cell differentiation from prothymocytes (acquisition of Thy-1.2 as marker). Format: cell-based. Particulars: for induction of T cell differentiation (qualitative): induction assay in vitro, no concentration stated. Here is the method: (§1) to determine the activity and characteristics of the polypeptide, determinations were carried out on healthy 5-6 week old nu/nu mice of both sexes, the mice being bred on a BALB/c background (thymocytes expressing Thy-1.2 surface antigen) and maintained under conventional conditions. For the antisera, anti Thy-1.2 sera were prepared in Thy-1 congenic mice.
(§2) For the induction of in vitro of Thy-1^+ T cell or CR^+ B cell differentiation, the induction of thymocyte differentiation from prothymocytes in vitro was performed as described by Komuro and Boyse, (Lancet 1, 740, 1973), using the acquisition of Thy-1.2 as a marker of T cell differentiation. The induction of CR^+ B cell differentiation from CR^- B cell precursors in vitro was performed under similar conditions using as the assay criterion, the capacity of CR^+ B cells to bind sheep erythrocytes coated with subagglutinating quantities of rabbit antibody and nonlytic complement. Spleen cell populations from healthy nu/nu mice fractionated on discontinuous bovine serium albumin gradients were used as the source of both precursor types (Thy-1 and […]) because they have few or no Thy-1^+ cells and low numbers of CR^+ cells.

Test [2] has as its system CR+ B cell differentiation from CR- B cell precursors (spleen cell populations from nu/nu mice). In words: induction in vitro of CR+ B cell differentiation from CR- B cell precursors (binding of sheep erythrocytes coated with antibody and complement). The class given is cell-based. Here is the method:
as §1, §2

For the sequence “GEQRKDVYVQLYL [tridecapeptide, H2 N--Gly--Glu--Gln--Arg--Lys--Asp--Val--Tyr--Val--Gln--Leu--Tyr--Leu--COOH]”, the “concentration from which the polypeptide is maximally active” value in test [1] (in vitro) is recorded as “about 100 nanogram per ml”. In addition, in test [1] (in vitro, lower end of active concentrations), the “concentration from which the polypeptide is active” value was 1 nanogram per ml. Also, the results for the “induction of T cell differentiation (qualitative)” value in test [1] (listed as polypeptide) and in test [1] (listed as synthetic peptide) were “inducing the differentiation of T-lymphocytes” and “induced the differentiation”, respectively. For the same sequence, in test [2] (in vitro, concentrations 0.01 ng to 10 μg/ml), the “induction of differentiation of CR+ B cells” value was “does not induce; also recorded: did not induce”. Also, the “induction of CR+ B cell differentiation (qualitative)” value in test [2] (induction assay in vitro, no concentration stated, listed as synthetic peptide) is “did not induce”.
